In patent US7727731B2, “Potent, selective and non toxic c-kit inhibitors” (AB Science, priority 2001, dated 2010):

Key:
SCF activated c-kit wild = target: T1, SCF activated c-kit wild (Mus musculus, UniProt P05532); experiment: Proliferation test, Ba/F3 Kit cells with SCF; assay type: cell-based, murine; conditions: doses inferior to toxicity level (<10 μM)
T1 construct: expressed in transfected cells; host or cells: Ba/F3 (murine, IL-3 dependent)
Description: (§1) First step: cellular proliferation to select molecules which are able to slowdown or stop cellular growth induced by c-kit activation. Here, SCF activated c-kit is used. Then, the effect of these molecules is analyzed by biochemistry techniques (immuno precipitations and western-blots), so that to determine if the inhibitor acts directly on the receptor c-kit or on other proteins, which are mediators of Kit signals. In a second step, a subset of molecules identified is selected in a cellular test on IL-3 dependant cells cultured in presence of IL-3. molecules that are not toxic are identified as potent specific c-kit inhibitors for a use in therapy.
(§2) Two types of cell lines carrying wild or mutated forms of c-kit are available lines derived from mastocytomes and the Ba/F3 cell model (cells depending on IL-3). In the Ba/F3 cells, the expression of c-kit removes the dependence vis-a-vis IL-3. Consequently, cDNA of wild or mutated murine c-kit has been introduced and these cells proliferate either in presence of SCF in case of c-kit wild or in absence of any growth factor in case of activated mutant c-kit.
Preparation of cell lines • Ba/F3-Kit: Ba/F3 cells in which Kit gene, mutated or wild, has been introduced. They proliferate either in presence of Kit ligand (SCF) or in presence of IL-3. […]

[1] = system: c-kit carrying one of the juxtamembrane mutations (Δ27); experiment: Proliferation test, Ba/F3 Δ27 cells; assay type: cell-based, murine; conditions: doses inferior to toxicity level (<10 μM)
Text: as §2
(§3) Juxtamembrane Mutations • Ba/F3-KitΔ27 (transfected juxtamembrane mutation—identified at the Laboratory) • Ba/F3-KitG559 (transfected juxtamembrane mutation) • FMA3 (deletion 7aa. juxtamembrane identified in a mouse mastocytome)
Cells expressing c-kit carrying one of the juxtamembrane mutations (Δ27) were also used as a control.
(§4) Table set up according to CPM (Counts Per Minutes) percentage obtained after proliferation in absence of inhibitors as 100% (% CPM>80=−−/50<% CPM<80=−/20<% CPM <50=+/5<% CPM<20=+/%-CPM<5=++). All experiments were done in triplicate.

[2] = target: T2, c-kit carrying the 814 mutation (Mus musculus, UniProt P05532, D818V); experiment: Proliferation test, IC2 D814V cells; assay type: cell-based, murine; conditions: doses inferior to toxicity level (<10 μM)
T2 construct: expressed in transfected cells; host or cells: IC2 murine mast cell line
Description: We have tested 37 compounds that are indolinone derivatives in different cell lines and successive screening to select interesting inhibitors. • Method: select the compounds which are effectively c-kit inhibitors (Table 1) Each compound has been tested at a high dose (10 μM) on cell expressing • c-kit carrying the 814 mutation • SCF activated c-kit wild • control cells cultivated in IL-3.
The effect of the 21 inhibitors has been tested at decreasing concentrations (10-10^−1-10^−2 μM) in order to reveal compounds that are able at 1 μM to inhibit proliferation of the IC2 D814V line while preserving response to another stimulus (IL-3, toxicity control).
The nine compounds selected have been tested at narrower doses: between 0.1 and 1 μM. At this stage, the three most efficient compounds at lower doses have been selected (≦0.6 μM): 11, 14 and 35.
as §4

[3] = target: T3, FMA3 (deletion 7aa. juxtamembrane) (Mus musculus, UniProt P05532, DEL577-583); experiment: Proliferation test, FMA3 cells; assay type: cell-based; conditions: doses inferior to toxicity level (<10 μM)
T3 construct: endogenous in cells; host or cells: FMA3 mouse mastocytoma cells
Text: as §3

c-kit wild = c-kit wild (Mus musculus, UniProt P05532); experiment: c-kit phosphorylation after immunoprecipitation, c-kit wild; assay type: cell-based
Description: as §1
(§5) The first step of c-kit activation consists of receptor phosphorylation on tyrosine residues. Thus, the phosphorylation state is a measure of receptor activation. By using specific antibodies, c-kit has been isolated by immunoprecipitation and c-kit phosphorylation has been determined using common procedures.

[4] = system: c-kit bearing juxtamembrane mutations; experiment: c-kit phosphorylation after immunoprecipitation, juxtamembrane mutants; assay type: cell-based
Description: as §1, §5

814 mutant c-kit = experiment: c-kit phosphorylation after immunoprecipitation, 814 mutant; assay type: cell-based
Description: as §1, §5

[5] = system: mutant in a human mast cell leukemia cell line (HMC-1, expressing a juxtamembrane mutation); conditions: cited from earlier work

T3 sequence (P05532 with tags, fused parts or gaps isoform P05532-2 DEL573-579): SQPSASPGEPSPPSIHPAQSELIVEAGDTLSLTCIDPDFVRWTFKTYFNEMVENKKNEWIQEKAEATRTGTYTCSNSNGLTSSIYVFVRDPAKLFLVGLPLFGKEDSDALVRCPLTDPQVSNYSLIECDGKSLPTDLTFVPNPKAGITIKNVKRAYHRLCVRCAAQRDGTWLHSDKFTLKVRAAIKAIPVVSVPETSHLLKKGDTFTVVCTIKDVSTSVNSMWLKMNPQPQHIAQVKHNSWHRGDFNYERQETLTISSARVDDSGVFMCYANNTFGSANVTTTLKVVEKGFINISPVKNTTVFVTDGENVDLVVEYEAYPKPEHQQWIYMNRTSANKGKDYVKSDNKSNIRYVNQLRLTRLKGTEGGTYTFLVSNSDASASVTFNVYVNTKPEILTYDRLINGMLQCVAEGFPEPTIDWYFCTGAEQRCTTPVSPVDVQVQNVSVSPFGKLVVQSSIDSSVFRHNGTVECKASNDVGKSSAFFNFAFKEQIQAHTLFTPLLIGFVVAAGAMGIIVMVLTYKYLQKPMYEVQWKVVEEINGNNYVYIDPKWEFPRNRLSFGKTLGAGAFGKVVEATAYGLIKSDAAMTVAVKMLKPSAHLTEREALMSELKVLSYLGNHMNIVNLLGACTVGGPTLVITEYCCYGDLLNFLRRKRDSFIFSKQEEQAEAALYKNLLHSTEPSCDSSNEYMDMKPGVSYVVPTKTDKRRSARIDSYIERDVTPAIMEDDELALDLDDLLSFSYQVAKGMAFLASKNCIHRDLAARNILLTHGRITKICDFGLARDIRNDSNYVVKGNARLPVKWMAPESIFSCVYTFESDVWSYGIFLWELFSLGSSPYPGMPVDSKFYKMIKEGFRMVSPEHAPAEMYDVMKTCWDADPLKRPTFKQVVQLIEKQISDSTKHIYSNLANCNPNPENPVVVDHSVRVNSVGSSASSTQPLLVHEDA
c-kit bearing juxtamembrane mutations, sequence (P05532 592-939 limits assumed, change not shown): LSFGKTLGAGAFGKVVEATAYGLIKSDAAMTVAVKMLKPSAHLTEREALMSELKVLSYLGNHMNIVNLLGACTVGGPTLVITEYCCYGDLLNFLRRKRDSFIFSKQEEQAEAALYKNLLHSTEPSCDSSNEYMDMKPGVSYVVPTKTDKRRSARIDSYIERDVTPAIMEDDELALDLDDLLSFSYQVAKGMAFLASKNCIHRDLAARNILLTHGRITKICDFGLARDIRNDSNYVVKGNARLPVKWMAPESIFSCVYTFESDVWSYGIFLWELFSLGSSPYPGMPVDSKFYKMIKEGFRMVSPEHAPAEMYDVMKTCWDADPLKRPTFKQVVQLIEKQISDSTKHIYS
T1 sequence (P05532 25-975 isoform P05532-2 limits assumed): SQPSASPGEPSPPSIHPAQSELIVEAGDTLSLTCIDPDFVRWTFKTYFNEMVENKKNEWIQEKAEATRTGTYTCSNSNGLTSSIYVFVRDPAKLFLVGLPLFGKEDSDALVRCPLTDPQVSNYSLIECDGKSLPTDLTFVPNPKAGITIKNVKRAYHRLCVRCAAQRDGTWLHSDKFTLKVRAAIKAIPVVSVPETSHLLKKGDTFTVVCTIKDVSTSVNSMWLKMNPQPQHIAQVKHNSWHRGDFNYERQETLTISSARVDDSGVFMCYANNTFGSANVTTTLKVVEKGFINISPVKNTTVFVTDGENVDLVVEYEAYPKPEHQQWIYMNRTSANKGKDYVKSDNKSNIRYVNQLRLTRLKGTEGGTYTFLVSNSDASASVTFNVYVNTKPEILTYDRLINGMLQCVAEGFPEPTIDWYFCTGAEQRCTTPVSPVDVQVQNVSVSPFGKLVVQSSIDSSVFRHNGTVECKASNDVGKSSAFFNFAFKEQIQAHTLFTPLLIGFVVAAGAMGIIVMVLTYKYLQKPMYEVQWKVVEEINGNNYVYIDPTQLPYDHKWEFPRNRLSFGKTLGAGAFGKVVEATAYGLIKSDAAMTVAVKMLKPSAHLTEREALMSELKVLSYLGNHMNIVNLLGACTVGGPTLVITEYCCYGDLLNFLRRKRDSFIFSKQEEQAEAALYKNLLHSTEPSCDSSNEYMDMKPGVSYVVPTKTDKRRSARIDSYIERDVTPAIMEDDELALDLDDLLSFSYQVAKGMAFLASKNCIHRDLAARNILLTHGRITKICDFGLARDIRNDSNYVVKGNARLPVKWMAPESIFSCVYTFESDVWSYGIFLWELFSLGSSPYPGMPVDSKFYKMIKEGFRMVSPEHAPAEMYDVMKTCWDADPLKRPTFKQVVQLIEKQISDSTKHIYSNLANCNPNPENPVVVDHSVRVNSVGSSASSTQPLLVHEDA
c-kit wild, sequence (P05532 25-975 isoform P05532-2 limits assumed): as above
T2 sequence (P05532 25-975 isoform P05532-2 D814V limits assumed): as the sequence (P05532 25-975 isoform P05532-2 limits assumed) above, with D790V counted along it

STI 571
Effect on proliferation depending on c-kit wild (SCF activated c-kit wild): inhibits totally the proliferation | Effect on proliferation, juxtamembrane mutation Δ27 [1]: inhibits totally the proliferation | Effect on proliferation of cells carrying 814 mutation, IC2 [2]: not the proliferation of cells carrying 814 mutation | Effect on proliferation, juxtamembrane mutation FMA3 [3]: inhibits totally the proliferation | Phosphorylation of c-kit wild (c-kit wild): considerably reduces the phosphorylation | Phosphorylation of c-kit bearing juxtamembrane mutations [4]: considerably reduces the phosphorylation | Phosphorylation of the 814 mutant c-kit (814 mutant c-kit): is not reduced | Inhibitory effect on kinase activity of HMC-1 mutant compared with ligand-dependent activation of the wild-type receptor [5]: more potent inhibitory effect
